The text below walks through data of ChEMBL document CHEMBL1136898, “Conformational analysis of N,N-disubstituted-1,4-diazepane orexin receptor antagonists and implications for receptor binding” (Bioorg Med Chem Lett, 2009).

In test [1] the target is T1, Orexin/Hypocretin receptor type 1 (Homo sapiens, UniProt O43613).
T1 sequence (O43613 whole entry): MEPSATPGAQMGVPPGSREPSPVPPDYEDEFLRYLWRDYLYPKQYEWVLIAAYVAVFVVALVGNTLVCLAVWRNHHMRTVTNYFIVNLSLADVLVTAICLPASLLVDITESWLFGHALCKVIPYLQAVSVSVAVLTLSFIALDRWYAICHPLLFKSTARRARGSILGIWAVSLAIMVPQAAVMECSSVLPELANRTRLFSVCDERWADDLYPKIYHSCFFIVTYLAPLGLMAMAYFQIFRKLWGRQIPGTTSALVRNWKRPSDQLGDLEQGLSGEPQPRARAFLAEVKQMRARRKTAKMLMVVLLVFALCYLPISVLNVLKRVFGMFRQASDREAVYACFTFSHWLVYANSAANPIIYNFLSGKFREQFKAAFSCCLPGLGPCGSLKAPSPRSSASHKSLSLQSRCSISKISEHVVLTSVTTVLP
Nature of the test: Binding affinity to OX1 receptor.

In the next test the target is T2, Orexin receptor type 2 (Homo sapiens, UniProt O43614).
T2 sequence (O43614 whole entry): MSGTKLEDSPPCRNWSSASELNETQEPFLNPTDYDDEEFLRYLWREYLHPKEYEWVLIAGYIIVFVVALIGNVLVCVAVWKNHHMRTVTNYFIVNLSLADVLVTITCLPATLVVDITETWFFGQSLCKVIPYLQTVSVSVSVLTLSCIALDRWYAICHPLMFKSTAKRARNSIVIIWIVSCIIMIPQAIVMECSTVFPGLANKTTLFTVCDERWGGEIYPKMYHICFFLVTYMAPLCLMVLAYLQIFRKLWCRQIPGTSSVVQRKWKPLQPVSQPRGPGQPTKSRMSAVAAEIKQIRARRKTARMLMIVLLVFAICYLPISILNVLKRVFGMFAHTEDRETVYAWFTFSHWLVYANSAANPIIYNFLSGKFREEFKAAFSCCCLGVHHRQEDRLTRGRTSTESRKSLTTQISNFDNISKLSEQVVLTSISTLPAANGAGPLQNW
The experiment in a line: Binding affinity to OX2 receptor.

On to `Cc1ccc(-n2nccn2)c(CN2CCCN(c3ncc4ccccc4n3)CC2)c1`, for which the Ki in test [1] turned out to be 930 nM; on Orexin receptor type 2, 240 nM.

For `Cc1ccc(-n2nccn2)c(C(=O)N2CCCN(c3ccc4ccccc4c3)CC2)c1`, the Ki (in test [1]; on Orexin receptor type 2) was 2 nM throughout.

For the molecule `O=C(C1CCCCC1)N1CCCN(c2ncc3ccccc3n2)CC1`, the results for the Ki (in test [1]; at Orexin receptor type 2) were 9800 nM and 550 nM, respectively.

`O=C1c2cc(ccc2-n2nccn2)CCCCCCc2ccc3cc(ccc3c2)N2CCCN1CC2`: the Ki in test [1] was 51 nM; on Orexin receptor type 2 it was 42 nM.
